tested on: lymphocytes in the peripheral blood; assay: number of lymphocytes in peripheral blood, Siemens Advia 120 (Example 9); type: in vivo, C57/BL6 mice; conditions: 200 μl of 1% solution i.p., blood 16 hr later, vs saline
Protocol: About 3-month-old C57/BL6 mice were intraperitoneally injected with 200 μl of saline (control) or 1% solution of respective compounds (dissolved in saline). Blood was collected 16 hr later, and the number of lymphocytes in the peripheral blood was measured using Siemens Advia 120.

Compound	number of lymphocytes in the peripheral blood
Cc1cccnc1C [2,3-dimethylpyridine]	increases
Cc1ccc(C)s1 [2,5-Dimethylthiophene]	increases
CC(=O)c1cccc(C)n1 [2-Acetyl-6-methylpyridine]	increases
O=S1(=O)CCN(c2ccccc2)CC1 [4-Phenyl-thiomorpholine-1,1-dioxide]	increases
C1COCCN1 [Morpholine]	increases
(−)-Ambroxide	increases

tested on: peripheral blood mononuclear cells (PBMC); assay: scRNAseq classification of PBMC after intraperitoneal 2MT (Example 1); type: in vivo, C57/BL6 mice; conditions: 200 μl of 1% 2MT solution i.p., blood 16 hr later, vs saline
Protocol: (§1) About 3-month-old C57/BL6 mice were intraperitoneally administered with 200 μl of saline (control) or 1% 2MT solution (dissolved in saline). Blood was collected 16 hr later, and peripheral blood mononuclear cells (PBMC) were separated using Ficoll Paque PREMIUM 1.084 (GE Healthcare). A single cell RNA cDNA library was prepared from the separated cells by using the 10× Chromium preparation system, Chromium Single Cell 3′ Library & Gel Bead Kit v3, and sequencing was performed using the illumina HiSeq. The obtained scRNAseq data was analyzed according to the method shown in Non-Patent Literatures 4 and 5. The results of clustering using the gene expression of each cell as an index were visualized by tSNE, and the results are shown in FIG. 1A-C.

Compound	numbers of monocytes (Mono 1, Mono 2) and dendritic cells (DC)
CC1=NCCS1 [2-Methyl-2-thiazoline]	drastically increases

same assay, conditions: 200 μl of 1% 2MT solution i.p., blood 16 hr later; control 0.83%

Compound	dendritic cells in PBMC
CC1=NCCS1 [2-Methyl-2-thiazoline]	2.2%

same assay, conditions: 200 μl of 1% 2MT solution i.p., blood 16 hr later; control 3.7%

Compound	percentage of monocytes in PBMC
CC1=NCCS1 [2-Methyl-2-thiazoline]	23.7%

tested on: monocytes in the whole blood cells; assay: ratio of monocytes in whole blood cells, Siemens Advia 120 (Examples 10, 11); type: in vivo, C57/BL6 mice; conditions: 200 μl of 1% solution i.p., blood 16 hr later, vs saline
Protocol: About 3-month-old C57/BL6 mice were intraperitoneally injected with 200 μl of saline (control) or 1% solution of respective compounds (dissolved in saline). Blood was collected 16 hr later, and the ratio of monocytes in the whole blood cells was measured using Siemens Advia 120.
About 3-month-old C57/BL6 mice were intraperitoneally injected with 200 μl of saline (control) or 1% allyl isothiocyanate solution (dissolved in saline). Blood was collected 16 hr later, and the ratio of monocytes in the whole blood cells was measured using Siemens Advia 120.

Compound	ratio of monocytes in the whole blood cells
CC1CCC(C)O1 (stereo not drawn) [2,5-Dimethyltetrahydrofuran]	increases
C=CCSC1=NCCS1 [2-(Allylthio)-2-thiazoline]	increases
Cc1nccnc1SCc1ccco1 [2-Furfurylthio-3-methylpyrazine]	increases
SC1=NCCS1 [2-Mercaptothiazoline]	increases
CC1=NCCS1 [2-Methyl-2-thiazoline]	increases
CC1OCCC1S (stereo not drawn) [2-Methyl-3-tetrahydrofuranthiol]	increases
CC(=O)c1ccncc1 [4-Acetylpyridine]	increases
CCC1CSC(C)=N1 (stereo not drawn) [4-Ethyl-2-methyl-thiazoline]	increases
Cc1cncs1 [5-Methylthiazole]	increases
COc1ccc2ncccc2c1 [6-Methoxyquinoline]	increases
C=CCN=C=S [Allyl isothiocyanate]	increases

tested on: peripheral blood mononuclear cells (PBMC); assay: scRNAseq gene expression changes in PBMC cell clusters, control vs 2MT (Example 2); type: in vivo, C57/BL6 mice; conditions: 2MT i.p. vs control, 16 hr
Protocol: as §1, with “1A-C. […] Based on the data of scRNAseq performed in Example 1, the comparison results of the changes in the expression of each gene in the cells present in each cluster between the control conditions and the 2MT administration conditions are shown in FIG. 2. The genes whose expression changed by 2MT stimulation are shown on the top of the table, and the functional categories of the genes are shown above them. The numbers in the table indicate gene expression levels, and the density of shading indicates the degree of increase in gene expression.” for “1A-C.”

Compound	expression levels of Ccr1, Ccr2, Ccr12, and Cxc12 (genes that promote blood cell migration)	expression levels of Lyz2, F13a1, Cd14, Chil3, and Hp (biological defense response)	expression levels of Nfkbia, Nfkbiz, and Socs3 (suppressors of NF-κB and JAK-STAT pathways)
CC1=NCCS1 [2-Methyl-2-thiazoline]	increased	increased	increased

tested on: basophils in the whole blood cells; assay: ratio of basophils in whole blood cells, Siemens Advia 120 (Example 14); type: in vivo, C57/BL6 mice; conditions: 200 μl of 1% solution i.p., blood 16 hr later, vs saline
Protocol: About 3-month-old C57/BL6 mice were intraperitoneally injected with 200 μl of saline (control) or 1% solution of respective compounds (dissolved in saline). Blood was collected 16 hr later, and the ratio of basophils in the whole blood cells was measured using Siemens Advia 120.

Compound	ratio of basophils in the whole blood cells
Cc1oc2ccccc2c1C [2,3-Dimethylbenzofuran]	increases
CC1CCC(C)O1 (stereo not drawn) [2,5-Dimethyltetrahydrofuran]	increases
Cc1cccc(C)n1 [2,6-Lutidine]	increases
CC(=O)c1ccc(C)o1 [2-Acetyl-5-methylfuran]	increases
SC1=NCCS1 [2-Mercaptothiazoline]	increases
Cc1ccco1 [2-Methylfuran]	increases
COc1ccc2ncccc2c1 [6-Methoxyquinoline]	increases

tested on: neutrophils in the peripheral blood; assay: number of neutrophils in peripheral blood, Siemens Advia 120 (Examples 4, 5); type: in vivo, C57/BL6 mice; conditions: 200 μl of 1% solution i.p., blood 16 hr later, vs saline
Protocol: About 3-month-old C57/BL6 mice were intraperitoneally injected with 200 μl of saline (control) or 1% solution of respective compounds (dissolved in saline). Blood was collected 16 hr later, and the number of neutrophils in the peripheral blood was measured using Siemens Advia 120.

Compound	neutrophils in the peripheral blood (number)
Cc1ccc(C)s1 [2,5-Dimethylthiophene]	increase
Cc1nccnc1SCc1ccco1 [2-Furfurylthio-3-methylpyrazine]	increase
SC1=NCCS1 [2-Mercaptothiazoline]	increase
CC1=NCCS1 [2-Methyl-2-thiazoline]	increase
CC(=O)c1ccncc1 [4-Acetylpyridine]	increase
CCC1CSC(C)=N1 (stereo not drawn) [4-Ethyl-2-methyl-thiazoline]	increase
Cc1cncs1 [5-Methylthiazole]	increase
COc1ccc2ncccc2c1 [6-Methoxyquinoline]	increase
C=CCN=C=S [Allyl isothiocyanate]	increase
C1COCCN1 [Morpholine]	increase

tested on: neutrophils in the whole blood cells; assay: ratio of neutrophils in whole blood cells, Siemens Advia 120 (Examples 12, 13); type: in vivo, C57/BL6 mice; conditions: 200 μl of 1% solution i.p., blood 16 hr later, vs saline
Protocol: About 3-month-old C57/BL6 mice were intraperitoneally injected with 200 μl of saline (control) or 1% solution of respective compounds (dissolved in saline). Blood was collected 16 hr later, and the ratio of neutrophils in the whole blood cells was measured using Siemens Advia 120.

Compound	ratio of neutrophils in the whole blood cells
Cc1oc2ccccc2c1C [2,3-Dimethylbenzofuran]	increases
CC(=O)c1ccc(C)o1 [2-Acetyl-5-methylfuran]	increases
Cc1nccnc1SCc1ccco1 [2-Furfurylthio-3-methylpyrazine]	increases
SC1=NCCS1 [2-Mercaptothiazoline]	increases
CC1=NCCS1 [2-Methyl-2-thiazoline]	increases
CC(=O)c1ccncc1 [4-Acetylpyridine]	increases
CCC1CSC(C)=N1 (stereo not drawn) [4-Ethyl-2-methyl-thiazoline]	increases
Cc1cncs1 [5-Methylthiazole]	increases
COc1ccc2ncccc2c1 [6-Methoxyquinoline]	increases
C=CCN=C=S [Allyl isothiocyanate]	increases

tested on: monocytes in the peripheral blood; assay: number of monocytes in peripheral blood, Siemens Advia 120 (Examples 6, 7); type: in vivo, C57/BL6 mice; conditions: 200 μl of 1% solution i.p., blood 16 hr later, vs saline
Protocol: About 3-month-old C57/BL6 mice were intraperitoneally injected with 200 μl of saline (control) or 1% solution of respective compounds (dissolved in saline). Blood was collected 16 hr later, and the number of monocytes in the peripheral blood was measured using Siemens Advia 120.
About 3-month-old C57/BL6 mice were intraperitoneally injected with 200 μl of saline (control) or 1% allyl isothiocyanate solution (dissolved in saline). Blood was collected 16 hr later, and the number of monocytes in the peripheral blood was measured using Siemens Advia 120.

Compound	number of monocytes in the peripheral blood
C=CCSC1=NCCS1 [2-(Allylthio)-2-thiazoline]	increase
CC(=O)c1ncc(C)nc1C [2-Acetyl-3,5-dimethy pyrazine]	increase
Cc1nccnc1SCc1ccco1 [2-Furfurylthio-3-methylpyrazine]	increase
SC1=NCCS1 [2-Mercaptothiazoline]	increase
CC1=NCCS1 [2-Methyl-2-thiazoline]	increase
CC1OCCC1S (stereo not drawn) [2-Methyl-3-tetrahydrofuranthiol]	increase
CC(=O)c1ccncc1 [4-Acetylpyridine]	increase
O=S1(=O)CCN(c2ccccc2)CC1 [4-Phenyl-thiomorpholine-1,1-dioxide]	increase
COc1ccc2ncccc2c1 [6-Methoxyquinoline]	increase
C=CCN=C=S [Allyl isothiocyanate]	increases
C1COCCN1 [Morpholine]	increase

tested on: basophils in the peripheral blood; assay: number of basophils in peripheral blood, Siemens Advia 120 (Example 8); type: in vivo, C57/BL6 mice; conditions: 200 μl of 1% solution i.p., blood 16 hr later, vs saline
Protocol: About 3-month-old C57/BL6 mice were intraperitoneally injected with 200 μl of saline (control) or 1% solution of respective compounds (dissolved in saline). Blood was collected 16 hr later, and the number of basophils in the peripheral blood was measured using Siemens Advia 120.

Compound	number of basophils in the peripheral blood
Cc1oc2ccccc2c1C [2,3-Dimethylbenzofuran]	increases
Cc1ccc(C)o1 [2,5-Dimethylfuran]	increases
CC1CCC(C)O1 (stereo not drawn) [2,5-Dimethyltetrahydrofuran]	increases
Cc1ccc(C)s1 [2,5-Dimethylthiophene]	increases
Cc1cccc(C)n1 [2,6-Lutidine]	increases
CC(=O)c1ncc(C)nc1C [2-Acetyl-3,5-dimethy pyrazine]	increases
CC(=O)c1ccc(C)o1 [2-Acetyl-5-methylfuran]	increases
CC1OCCC1S (stereo not drawn) [2-Methyl-3-tetrahydrofuranthiol]	increases
Cc1ccco1 [2-Methylfuran]	increases
COc1ccc2ncccc2c1 [6-Methoxyquinoline]	increases

tested on: monocytes in the peripheral blood; assay: flow cytometry of monocytes in peripheral blood, 2MT i.p./odor, corticosterone (Example 3); type: in vivo, C57/BL6 mice; conditions: intraperitoneal injection vs saline i.p., blood 16 hr later
Protocol: (§2) About 3-month-old C57/BL6 mice were intraperitoneally administered with 200 μl of saline (control) or 1% 2MT solution (dissolved in saline). Blood was collected 16 hr later, and the number of various leukocytes in the peripheral blood was measured by a flow cytometry method by peroxidase staining and a two-angle laser flow cytometry method. The ratios of neutrophils and monocytes in the peripheral blood under respective conditions that were clarified by the measurement are shown.

Compound	number of monocytes
CC1=NCCS1 [2-Methyl-2-thiazoline]	increased
C[C@]12C[C@H](O)[C@H]3[C@@H](CCC4=CC(=O)CC[C@@]43C)[C@@H]1CC[C@@H]2C(=O)CO [Corticosterone, reference compound]	did not increase significantly

same assay, conditions: odor stimulation vs no odor

Compound	number of monocytes
CC1=NCCS1 [2-Methyl-2-thiazoline]	increased

tested on: lymphocytes in the whole blood cells; assay: ratio of lymphocytes in whole blood cells, Siemens Advia 120 (Example 15); type: in vivo, C57/BL6 mice; conditions: 1% solution i.p., blood 16 hr later, vs saline
Protocol: About 3-month-old C57/BL6 mice were intraperitoneally injected with […] saline (control) or 1% solution of respective compounds (dissolved in saline). Blood was collected 16 hr later, and the ratio of lymphocytes in the whole blood cells was measured using Siemens Advia 120.

Compound	ratio of lymphocytes in the whole blood cells
CCC1CSC(C)=N1 (stereo not drawn) [4-Ethyl-2-methyl-thiazoline]	increases
O=Cc1cncs1 [5-Formylthiazole]	increases
Cc1cncs1 [5-Methylthiazole]	increases

tested on: not listed separately; assay: blood stress hormone (Corticosterone) after 2MT stimulation; type: in vivo; conditions: not given

Compound	blood stress hormone (Corticosterone)
CC1=NCCS1 [2-Methyl-2-thiazoline]	increases

tested on: neutrophils in the peripheral blood; assay: flow cytometry of neutrophils in peripheral blood, 2MT i.p./odor, corticosterone (Example 3); type: in vivo, C57/BL6 mice; conditions: intraperitoneal injection vs saline i.p., blood 16 hr later
Protocol: as §2

Compound	number of neutrophils
CC1=NCCS1 [2-Methyl-2-thiazoline]	increased
C[C@]12C[C@H](O)[C@H]3[C@@H](CCC4=CC(=O)CC[C@@]43C)[C@@H]1CC[C@@H]2C(=O)CO [Corticosterone, reference compound]	decreased

same assay, conditions: odor stimulation vs no odor

Compound	number of neutrophils
CC1=NCCS1 [2-Methyl-2-thiazoline]	increased

— patent US20230149420A1, “ANTI-INFLAMMATORY IMMUNOENHANCER” (SCENT SCIENCE INTERNATIONAL INC., priority 2020, published 2023)
